Data from patent US12492373B2, “Production method for nerve tissue” (Racthera Co., Ltd., priority 2014, dated 2025).

Experiments:
[1] = tested on: human iPS cells (1231A3 strain); experiment: Immunostaining of aggregate sections for neural tissue markers Nestin, TuJ1, PSA-NCAM; format: cell-based
Description: Furthermore, cell aggregates on day 23 after the start of suspension culturing, which were produced from the above iPS cells that underwent a preconditioning treatment as a starting material (conditions of FIG. 5B) were fixed with 4% para-formaldehyde to prepare frozen sections. […] Furthermore, it could be confirmed from the analysis of serial sections, that the regions that could be determined to be neural tissue by morphology observation in the bright field under an inverted microscope were Nestin-positive, TuJ1-positive, and PSA-NCAM-positive (FIG. 5C-E).
Furthermore, the above cell aggregates on day 23 after the start of suspension culturing, which were produced from the above iPS cells that underwent a preconditioning treatment with TGFβR inhibitor (SB431542) or BMPR inhibitor (LDN193189) as a starting material were fixed with 4% para-formaldehyde to prepare frozen sections. […] Furthermore, it could be confirmed from the analysis of serial sections, that the regions that could be identified to be neural tissue by morphology observation in the bright field images were Nestin-positive, TuJ1-positive, and PSA-NCAM-positive (FIG. 8A-F).
Cell aggregates were prepared according to the method described in Example 10 by using, as a starting material, human iPS cells using Essential 8 medium as a feeder-free culturing, TGFβR inhibiting substance (SB431542) in step 1, and a Shh signal transduction pathway activating substance in step 2. The cell aggregates on day 18 after the start of suspension culturing were fixed with 4% para-formaldehyde to prepare frozen section. […] Furthermore, it could be confirmed from the analysis of serial sections, that the regions that could be identified to be neural tissue by morphology observation in the bright field images were Nestin-positive, TuJ1-positive, and PSA-NCAM-positive (FIG. 11).

[2] = tested on: human iPS cells (1231A3 strain); experiment: Immunostaining of aggregate sections for retinal tissue markers Chx10, Rx; format: cell-based
Method: Here, as step 3, culturing was performed under the following condition 1 and condition 2: Under condition 1(+BMP), on day 6 after the start of suspension culturing, the medium was changed to a medium free of Y27632 and containing human recombinant BMP4 (manufactured by R&D) such that the final concentration of exogenous human recombinant BMP4 was 1.5 nM (55 ng/ml) (FIG. 6B, D). Under condition 2(−BMP), on day 6 after the start of suspension culturing, a half amount of the medium was changed to a medium free of Y27632 and free of a BMP signal transduction pathway activating substance, without adding exogenous human recombinant BMP4 (FIG. 6A, C).
The thus-prepared cell aggregates on day 23 after the start of suspension culturing, which were produced from the above iPS cells that underwent a preconditioning treatment in step 1 as a starting material were fixed with 4% para-formaldehyde to prepare frozen sections. These frozen sections were immunostained for Chx10 (anti-Chx10 antibody, Exalpha, sheep), which is one of the retinal tissue markers, or Rx (anti-Rx antibody, Takara, guinea pig), which is one of the retinal tissue markers. These immunostained sections were observed under an inverted fluorescence microscope.
Cell aggregate were prepared according to the method described in Example 8 under conditions in which human iPS cells using StemFit medium as a feeder-free medium were used as a starting material, TGFβR inhibiting substance (SB431542) or BMPR inhibiting substance (LDN193189) was used in step 1, Shh signal transduction pathway activating substance was used in step 2, and BMP signal transduction pathway activating substance was added or not added in step 3. Neural tissues were formed in all the aggregates formed under all these conditions on day 23 after the start of suspension culturing. The above cell aggregates were fixed with 4% para-formaldehyde to prepare frozen sections. These frozen sections were immunostained for Chx10 (anti-Chx10 antibody, Exalpha, sheep), which is one of the retinal tissue markers, or Rx (anti-Rx antibody, Takara, guinea pig), which is one of the retinal tissue markers. These immunostained sections were observed under an fluorescence microscope. […] Furthermore, it was found from the analysis of serial sections that, in a neural tissue having a high (not less than 95%) proportion of Chx10-positive cells, Rx is also strongly positive (FIG. 9B, D, F, H).
Cell aggregates were prepared according to the method described in Example 10 by using, as a starting material, human iPS cells using Essential 8 medium as a feeder-free culturing, under conditions that TGFβR inhibiting substance (SB431542) are used in step 1, a Shh signal transduction pathway activating substance are used in step 2, and a BMP signal transduction pathway activating substance are added or are not added in step 3. The cell aggregates on day 18 after the start of suspension culturing were each fixed with 4% para-formaldehyde to prepare frozen section. These frozen sections were immunostained for Chx10 (anti-Chx10 antibody, Exalpha, sheep), which is one of the retinal tissue markers, or Rx (anti-Rx antibody, Takara, guinea pig), which is one of the retinal tissue markers, and observed under a fluorescence microscope. […] Furthermore, it was found from the analysis of serial sections that, in a neural tissue having a high (not less than 95%) proportion of Chx10-positive cells, Rx is also strongly positive. […]
A Cell aggregate was formed on day 18 after the start of suspension culturing under every conditions, and a neural tissue was formed (FIG. 14, upper panel). The above cell aggregates on day 18 after the start of suspension culturing were each fixed with 4% para-formaldehyde to prepare frozen section. […]

[3] = LDN193189 100 nM in step 1, no SAG in step 2, StemFit, day 23
[4] = SB431542 5 μM or LDN193189 100 nM in step 1, SAG 300 nM in step 2, StemFit, day 23
[5] = LDN193189 100 nM in step 1, no SAG in step 2, BMP4 1.5 nM on day 6 in step 3, day 23
[6] = LDN193189 100 nM in step 1, no SAG in step 2, without BMP4 in step 3, day 23
[7] = SB431542 or LDN193189 in step 1, SAG 300 nM in step 2, BMP4 1.5 nM in step 3, StemFit, day 23
[8] = Essential 8 medium, SB431542 in step 1, SAG in step 2, day 18
[9] = Essential 8 medium, SB431542 in step 1, SAG in step 2, addition of BMP4 in step 3, day 18
[10] = Essential 8 medium, SB431542 in step 1, SAG in step 2, no addition of BMP4 in step 3, day 18

c1ccc2c(-c3cnn4cc(-c5ccc(N6CCNCC6)cc5)cnc34)ccnc2c1 [LDN193189, 4-[6-(4-piperazin-1-ylphenyl)pyrazolo[1,5-a]pyrimidin-3-yl]quinoline]
proportion of Nestin-positive cells in the total cells [1, 3]: about 20% | proportion of PSA-NCAM-positive cells in the total cells [1, 3]: about 70% | proportion of TuJ1-positive cells in the total cells [1, 3]: about 70% | proportion of Nestin-positive cells in the total cells [1, 4]: about 20% | proportion of PSA-NCAM-positive cells [1, 4]: about 70% | proportion of TuJ1-positive cells in the total cells [1, 4]: about 70% | proportion of Chx10-positive cells in the total cells [2, 5]: about 60% | proportion of Rx-positive cells in the total cells [2, 5]: about 60% | Rx-strong positive (corresponding to retina) [2, 6]: less than 3% | Rx-weak positive (corresponding to neural tissue other than retina) [2, 6]: less than 7% | proportion of Chx10-positive cells [2, 6]: less than 3% | proportion of Rx-positive cells in the total cells [2, 6]: less than 10% | proportion of Chx10-positive cells in the total cells [2, 7]: ≥ 40% | proportion of Rx-positive cells in the total cells [2, 7]: ≥ 50%

CNC1CCC(N(Cc2cccc(-c3ccncc3)c2)C(=O)c2sc3ccccc3c2Cl)CC1 (centres unmarked) [SAG]
proportion of Chx10-positive cells in the total cells ([2]; A83-01 0.5 μM and SAG 300 nM in step 1, substance added in step 2 (SAG 30 nM, Purmorphamine 0.2 μM or human recombinant Shh 300 ng/ml), BMP4 1.5 nM on day 3, day 20): about 90%

NC(=O)c1ccc(-c2nc(-c3ccc4c(c3)OCO4)c(-c3ccccn3)[nH]2)cc1 [SB431542, 4-(5-benzol[1,3]dioxol-5-yl-4-pyridin-2-yl-1H-imidazol-2-yl)-benzamide]
proportion of Nestin-positive cells in the total cells [1, 8]: about 30% | proportion of PSA-NCAM-positive cells [1, 8]: about 70% | proportion of TuJ1-positive cells in the total cells [1, 8]: about 70% | proportion of Nestin-positive cells in the total cells [1, 4]: about 20% | proportion of PSA-NCAM-positive cells [1, 4]: about 70% | proportion of TuJ1-positive cells in the total cells [1, 4]: about 70% | proportion of Chx10-positive cells in the total cells [2, 9]: ≥ 20% | proportion of Rx-strong positive cells in the total cells [2, 9]: ≥ 30% | Rx-strong positive (corresponding to retina) [2, 10]: less than 3% | Rx-weak positive (corresponding to neural tissue other than retina) [2, 10]: less than 7% | proportion of Chx10-positive cells [2, 10]: less than 3% | proportion of Rx-positive cells in the total cells [2, 10]: less than 10% | proportion of Chx10-positive cells in the total cells [2, 7]: ≥ 70% | proportion of Rx-positive cells in the total cells [2, 7]: ≥ 80%
